PMC9323911, “Comparative Metabolomics Study of the Impact of Articaine and Lidocaine on the Metabolism of SH-SY5Y Neuronal Cells” (Metabolites, 2022)
Entries after “also recorded” stand apart in the source; their conditions may differ. Where a name gives a salt, the structure may show the parent alone. Read-outs that look alike come from different tables or passages of the source.

Assays:
[1] = test system: SH-SY5Y cells; test: 1H NMR metabolic profiling of cell lipid extracts; format: cell-based, human; conditions: lipid extract, vs control
Procedure: After reaching semiconfluence, 10 mL of cells (1 × 10^6 cells/mL) were plated on 90 mm diameter culture dishes and incubated for 24 h. […] Afterward, the medium was collected and the dishes washed with cold PBS, immediately before the solvent extraction procedure described below. Unexposed cells were used as controls. Each assay comprised duplicates of each condition and three independent assays were performed, giving a total of 6 replicates per condition.
The culture medium was collected from each plate (including cell-free medium incubated under the same conditions) in conical tubes and centrifuged at 1000× g for 10 min. Furthermore, 300 µL of the supernatant were collected for protein precipitation, as described by Kostidis et al.. Briefly, 600 µL of 100% methanol (v/v) at −80 °C were added to the collected supernatant ([…]). The mixture was kept at −20 °C for 30 min and centrifuged at 13,000× g for 20 min. The supernatant was transferred to another tube and vacuum dried (SpeedVac, Eppendorf, Hamburg, Germany). For extracting cellular metabolites, a biphasic extraction protocol (methanol:chloroform:water; 1:1:0.7) was used as previously described. The resulting polar extracts were dried under vacuum in a Speedvac concentrator, and the lipophilic extracts were dried under a nitrogen flow. All extracts were stored at −80 °C prior to NMR analysis.
For NMR analysis, dried aqueous and lipid extracts were dissolved, respectively, in 600 μL of deuterated phosphate buffer (PBS 100 mM, pH 7.4) containing 0.1 mM 3-(trimethylsilyl) propionic acid (TSP-d4), and 600 μL of deuterated chloroform containing 0.03% tetramethylsilane (TMS). After transferring 550 μL of each sample to 5 mm NMR tubes, analysis was performed on a Bruker Avance III HD 500 NMR spectrometer (University of Aveiro, Portuguese NMR Network) operating at 500.13 MHz for ^1H observation, at 298 K. Standard 1D ^1H spectra (pulse programs ‘noesypr1d’ and ‘zg’ for aqueous and lipid samples, respectively) were recorded with 32 k points, 7002.80 Hz spectral width, a 2 s relaxation delay and 512 scans. […]. Two-dimensional NMR spectra, namely, ^1H-^1H TOCSY, J-resolved and ^1H-^13C HSQC spectra, were also recorded for selected samples to aid metabolite identification. Signal assignment was based on matching 1D and 2D spectral information to reference spectra available in Chenomx 9.0 (Edmonton, AB, Canada), BBIOREFCODE-2–0–0 (Bruker Biospin, Rheinstetten, Germany) and HMDB.
To provide a quantitative measurement of metabolic variations, spectral integration and total area normalization of selected signals (vide Supplementary Table S1) were carried out in Amix-Viewer 3.9.15 (Bruker Biospin, Rheinstetten, Germany). For each metabolite, the percentage of variation (or fold change) in exposed samples was calculated relative to respective controls, along with the effect size (ES) and statistical significance (p-value). The variations with larger magnitude (|ES| > 0.8) were expressed in a heatmap. Loadings profiles and heatmap figures were generated using the R software version 4.1.3 (R Core Team (2020). R: A language and environment for statistical computing. R Foundation for Statistical Computing, Vienna, Austria. URL http://www.R-project.org/ accessed 23 May 2022).

[2] = test system: SH-SY5Y human neuroblastoma cells; test: resazurin cell viability assay; format: cell-based; conditions: for IC50: Homo sapiens, SH-SY5Y, read-out: IC50 (cell viability)
Procedure: Undifferentiated SH-SY5Y human neuroblastoma cells (ATCC® CRL-2266) were cultured in DMEM:F12 medium supplemented with 10% FBS and 1% antibiotic (100 IU/mLof penicillin and 100 μg/mL of streptomycin sulfate). Cells were grown in 75 cm^2 bottles and incubated at 37 °C under a humidified atmosphere with 5% CO2 for 48 h, until reaching semiconfluency. All experiments were performed on cells between passages 4 to 8.
To assess cell viability, the resazurin test was used. This assay evaluates the ability of viable cells to reduce resazurin (blue color) to a fluorescent, pink-colored compound, resorufin. Briefly, the cells were plated in a 96-well plate 24 h before treatment, at a density of 4 × 10^4 cells/mL. […] Each LA was solubilized in complete DMEM:F12 medium. Subsequently, the medium was removed, the wells were washed with 5 mM PBS and the cells were incubated with 10% resazurin for 4 h. At the end of this period, the absorbance was measured at 570 nm (λ1) and at 600 nm (λ2) (Multiskan™ FC Microplate Photometer, Thermofisher). The experiment was performed in triplicate and the differences between the two wavelengths (λ1–λ2) were calculated. The results were expressed in % of cell viability in relation to control and analyzed in GraphPad Prism® 6.0.

| SMILES | cholesterol level ([1]; IC50, 24 h) | cholesteryl esters level ([1]; IC50, 24 h) | phospholipids level ([1]; IC50, 24 h) | triglycerides level ([1]; IC50, 24 h) | IC10 (concentration reducing cell viability by 10%) ([2]; 24 h exposure) [mM] | IC50 ([2]; 20 min, 20 min exposure) [mM] | IC50 ([2]; 1 h exposure) [mM] | IC50 ([2]; 4 h exposure) [mM] | IC50 ([2]; 24 h exposure) [mM] | IC50 ([2]; shortest exposure durations (20 min and 1 h)) [mM] | phosphatidylcholine (PtC) level ([1]; 24 h) | IC50 ([2]; 20 min) [mM] | IC50 ([2]; 1 h) [mM] | IC50 ([2]; 4 h) [mM] | IC50 ([2]; 24 h) [mM] | IC50 [2] [mM] |
| --- | --- | --- | --- | --- | --- | --- | --- | --- | --- | --- | --- | --- | --- | --- | --- | --- |
| CCCNC(C)C(=O)Nc1c(C)csc1C(=O)OC (stereo not drawn) [ATC, Articaine hydrochloride] | significant decrease | prominent increase; also recorded: increased | decreases | decreases | 1.2 | > 10 | > 10 | 5.4 ± 0.3 | 3 ± 0.2 | > 10 | – | – | – | – | – | – |
| CCN(CC)CC(=O)Nc1c(C)cccc1C [LDC, lidocaine hydrochloride] | – | – | – | accumulated; also recorded: increased | 1.2 | – | – | – | – | – | decrease | 7.3 ± 0.3 | 7.4 ± 0.3 | 5.7 ± 0.2 | 3.6 | ~7 |
